Consider 44 compounds from patent US7592467B2, “Inhibitors of prolyl endopeptidase” (Probiodrug AG, priority 2005, dated 2009).

The subject of one test is human glial U-343 cells. The test is described as follows: IL-6 ELISA, basal secretion of IL-6. The test is classed as cell-based. The conditions noted are these: inhibitor 20 μM, 24 hours, serum-free medium, untreated control = 100%, read-out: Extracellular IL-6 concentration, % of untreated cells. How it is done: To analyze basal secretion of IL-6, human glial U-343 cells were cultured in 6 well plates (1.5×10^6 cells/well, Greiner) and treated with specific PEP inhibitors as indicated (20 μM each) for 24 hours in serum-free D-MEM medium (invitrogen). Aliquots of 40 μl conditioned medium were used to quantify the amount of secreted IL-6 by an human-specific IL-6 ELISA (Biosource) following the manufacturer's instructions. All data were obtained in quadruplicate. For the calculation of the IL-6 concentration in the cell culture medium after PEP-inhibitor treatment, the basal IL-6 concentration of the cell culture medium of untreated cell samples was set to 100%. The results of the measurement of the IL-6 concentration with PEP-inhibitor treated cells are presented as % of the untreated cell samples.
In general terms: In an ELISA, binding on a coated surface is turned into a signal by an enzyme label.

A further test relates to U-343 and SH-SY5Y cells. Description: β-Amyloid ELISA, secreted β-amyloid peptides 1-40 and 1-42. The test is classed as cell-based. The conditions noted are these: Homo sapiens, inhibitor 20 μM, 24 hours, conditioned medium, untreated cells = 100%, cell line and peptide (1-40/1-42) not given, read-out: Extracellular Aβ-concentration, % of control. Here is the method:
The human glioma cell line, U-343 and the human neuroblastoma cell line, SH-SY5Y were maintained in Dulbecco's modified Eagle's medium (DMEM) containing 10% fetal bovine serum (Gibco BRL, Karlsruhe, Germany) and incubated at 37° C. in a 5% CO2 atmosphere. Culture media contained in general 60 μg/ml gentamycin (Gibco BRL, Karlsruhe, Germany).
To quantify intracellular and extracellular concentrations of 0-amyloid peptides, 1-40 and 1-42, U-343 and SH-SY5Y cells were cultured in 6 well plates (1.5×10^6 cells/well) and treated with specific PEP inhibitors (20 μM each) for 24 hours. For quantitation of secreted β-amyloid peptides the conditioned medium was collected and concentrated by lyophylisation. Likewise, after determination of the cell numbers/well (casy cell counter I, Schärfe System, Reutlingen, Germany), cells were lyzed with cell extraction buffer (Biosource, Solingen, Germany) according to the manufacturer's protocol. The protein concentration was determined by the method of Bradford (1976). Aliquots of 100 μl were used to quantify β-amyloid peptides 1-40 and 1-42 in quadruplicate by ELISA (IBL, Hamburg, Germany) following the manufacturer's instructions. All obtained intracellular and extracellular concentrations were normalized to cell numbers and protein concentration, respectively.
For the calculation of the concentration of β-amyloid peptides 1-40 and 1-42 in the cell culture medium after PEP-inhibitor treatment, the basal concentration of β-amyloid peptides 1-40 and 1-42 in the cell culture medium of untreated cell samples was set to 100%. The results of the measurement of the concentration of β-amyloid peptides 1-40 and 1-42 with PEP-inhibitor treated cells are presented as % of the untreated cell samples.

As to `O=C(OCCc1ccccc1)[C@@H]1CCCC[C@H]1C(=O)c1cccs1` (relative stereo) [Example 27, trans-1-(Thienylcarbonyl)-2-(phenyl-ethyl-oxycarbonyl)-cyclohexane], the activity at 20 µM was 19.6% in the test on human glial U-343 cells; 298% with U-343 and SH-SY5Y cells.

As to `O=C(OCc1ccccc1)c1ccccc1C(=O)c1cccs1` [Example 1], the activity at 20 µM in the test on human glial U-343 cells worked out at 92.6%; in the test with U-343 and SH-SY5Y cells, 197%.

Turning to `O=C(OCCc1ccccc1)c1ccccc1C(=O)c1cccs1` [Example 2], the activity at 20 µM in the test on human glial U-343 cells turned out to be 65.5%; in the test on U-343 and SH-SY5Y cells, 214%.

For the compound `O=C(OCc1ccc([N+](=O)[O-])cc1)c1ccccc1C(=O)c1cccs1` [Example 3], the activity at 20 µM is 245% with human glial U-343 cells; 141% in the test on U-343 and SH-SY5Y cells.

For the compound `O=C(OCC1c2ccccc2-c2ccccc21)c1ccccc1C(=O)c1cccs1` [Example 4, 2-(Fluorenyl-methyl-oxycarbonyl)-phenylthenon], the activity at 20 µM with human glial U-343 cells was determined as 40.7%; in the test with U-343 and SH-SY5Y cells, 200%.

As to `O=C(OCCc1ccc([N+](=O)[O-])cc1)c1ccccc1C(=O)c1cccs1` [Example 5, 2-(4-Nitrophenyl-ethyl-oxycarbonyl)-phenylthenon], the activity at 20 µM in the test on human glial U-343 cells was found to be 102%; in the test on U-343 and SH-SY5Y cells, 160%.

For the compound `Cc1cccc(CCOC(=O)c2ccccc2C(=O)c2cccs2)c1` [Example 6], the activity at 20 µM in the test with human glial U-343 cells was determined as 45.8%; with U-343 and SH-SY5Y cells it was 215%.

Consider `O=C(OC1Cc2ccccc2C1)c1ccccc1C(=O)c1cccs1` [Example 7, 2-([2,3-Dihydro-1H-indene-2-yl]-oxycarbonyl)-phenylthenon], for which the activity at 20 µM in the test on human glial U-343 cells amounted to 85.3%; with U-343 and SH-SY5Y cells it was 205%.

For the compound `O=C(OCCc1ccc2ccccc2c1)c1ccccc1C(=O)c1cccs1` [Example 8], the activity at 20 µM in the test with human glial U-343 cells was found to be 93.7%; with U-343 and SH-SY5Y cells, 165%.

`O=C(OCCN1C(=O)c2ccccc2C1=O)c1ccccc1C(=O)c1cccs1` [Example 10, 2-(Isoindolinyl-1,3-dione-ethyl-oxycarbonyl)-phenylthenon]: the activity at 20 µM with human glial U-343 cells was 143%; with U-343 and SH-SY5Y cells, 125%.

In the case of `O=C(OCCCc1ccccc1)c1ccccc1C(=O)c1cccs1` [Example 11], the activity at 20 µM in the test on human glial U-343 cells amounted to 42.4%; with U-343 and SH-SY5Y cells, 192%.

For the compound `O=C(OCCc1cccc(Cl)c1)c1ccccc1C(=O)c1cccs1` [Example 12], the activity at 20 µM in the test on human glial U-343 cells amounted to 53.7%; with U-343 and SH-SY5Y cells it was 191%.

As to `O=C(OCc1ccco1)c1ccccc1C(=O)c1cccs1` [Example 13, 2-(Furyl-methyl-oxycarbonyl)-phenylthenon], the activity at 20 µM came to 74.2% in the test on human glial U-343 cells; 122% with U-343 and SH-SY5Y cells.

`O=C(OCCc1cccs1)c1ccccc1C(=O)c1cccs1` [Example 14, 2-(Thienyl-ethyl-oxycarbonyl)-phenylthenon]: the activity at 20 µM amounted to 41.4% in the test with human glial U-343 cells; 200% in the test on U-343 and SH-SY5Y cells.

`O=C(OCCc1ccccc1)c1ccccc1C(=O)c1ccco1` [Example 15, 2-(Phenyl-ethyl-oxycarbonyl)-1-(furylcarbonyl)-benzol]: the activity at 20 µM with human glial U-343 cells turned out to be 48.2%; with U-343 and SH-SY5Y cells it was 144%.

Regarding `Cc1ccc(CCOC(=O)c2ccccc2C(=O)c2cccs2)cc1` [Example 16, 2-(4-Methylphenylethyl-oxycarbonyl)-phenylthenon], the activity at 20 µM in the test with human glial U-343 cells was determined as 26.7%; in the test on U-343 and SH-SY5Y cells it was 180%.

For `O=C(OCCc1ccsc1)c1ccccc1C(=O)c1cccs1` [Example 17], the activity at 20 µM with human glial U-343 cells amounted to 26.5%; in the test with U-343 and SH-SY5Y cells, 237%.

With `O=C(OCc1ccc(Cl)cc1)c1ccccc1C(=O)c1cccs1` [Example 19, 2-(4-Chlorophenyl-methyl-oxycarbonyl)-phenylthenon], the activity at 20 µM in the test on human glial U-343 cells is 35.2%; in the test with U-343 and SH-SY5Y cells it was 195%.

`O=C(OCc1cccc(Cl)c1)c1ccccc1C(=O)c1cccs1` [Example 20]: the activity at 20 µM is 49.2% in the test with human glial U-343 cells; 180% in the test on U-343 and SH-SY5Y cells.

Turning to `O=C(OCc1ccccc1Cl)c1ccccc1C(=O)c1cccs1` [Example 21], the activity at 20 µM in the test on human glial U-343 cells was found to be 62.1%; in the test with U-343 and SH-SY5Y cells it was 220%.

As for `O=C(OCc1cccc([N+](=O)[O-])c1)c1ccccc1C(=O)c1cccs1` [Example 22], the activity at 20 µM turned out to be 103% in the test on human glial U-343 cells; 153% with U-343 and SH-SY5Y cells.

`O=C(OCc1ccccc1[N+](=O)[O-])c1ccccc1C(=O)c1cccs1` [Example 23]: the activity at 20 µM was 109% in the test with human glial U-343 cells; 240% in the test on U-343 and SH-SY5Y cells.

`O=C(OCCc1cc2ccccc2s1)c1ccccc1C(=O)c1cccs1` [Example 24, 2-(Benzo[b]thiophen-2-yl-ethyl-oxycarbonyl)-phenylthenon]: the activity at 20 µM with human glial U-343 cells was determined as 66.9%; with U-343 and SH-SY5Y cells it was 165%.

Regarding `O=C(OCCCc1cccs1)c1ccccc1C(=O)c1cccs1` [Example 25], the activity at 20 µM with human glial U-343 cells amounted to 69%; in the test with U-343 and SH-SY5Y cells it was 197%.

Regarding `O=C(OCCc1ccccc1Cl)c1ccccc1C(=O)c1cccs1` [Example 26], the activity at 20 µM in the test on human glial U-343 cells is 36.6%; with U-343 and SH-SY5Y cells, 207%.

Consider `O=C(OCCc1ccccc1)[C@H]1CCCC[C@H]1C(=O)c1cccs1` [Example 28], for which the activity at 20 µM with human glial U-343 cells was found to be 78.8%.

With `O=C(NCc1ccccc1)c1ccccc1C(=O)c1cccs1` [Example 29, 2-(Phenylmethyl-amincarbonyl)-phenylthenon], the activity at 20 µM was 121% in the test with human glial U-343 cells; 109% with U-343 and SH-SY5Y cells.

On to `O=C(NCCc1ccccc1)c1ccccc1C(=O)c1cccs1` [Example 30], for which the activity at 20 µM in the test on human glial U-343 cells was determined as 42.3%; in the test on U-343 and SH-SY5Y cells, 205%.

Regarding `O=C(NCCCc1ccccc1)c1ccccc1C(=O)c1cccs1` [Example 31], the activity at 20 µM came to 30% in the test on human glial U-343 cells; 203% in the test on U-343 and SH-SY5Y cells.

Take `O=C(NCCc1ccccc1)c1ccccc1C(=O)c1ccco1` [Example 32]: the activity at 20 µM was 32% in the test with human glial U-343 cells; 63.9% in the test with U-343 and SH-SY5Y cells.

Consider `O=C(OCCc1ccccc1[N+](=O)[O-])c1ccccc1C(=O)c1cccs1` [Example 33], for which the activity at 20 µM in the test on human glial U-343 cells is 54.5%.

For the compound `O=C(OCCc1cccc([N+](=O)[O-])c1)c1ccccc1C(=O)c1cccs1` [Example 34], the activity at 20 µM in the test on human glial U-343 cells turned out to be 78.8%.

Regarding `COc1cccc(CCOC(=O)c2ccccc2C(=O)c2cccs2)c1` [Example 35], the activity at 20 µM in the test with human glial U-343 cells was found to be 46.7%.

With `O=C(OCc1cccc(C(F)(F)F)c1)c1ccccc1C(=O)c1cccs1` [Example 36], the activity at 20 µM in the test with human glial U-343 cells was 79.8%.

As for `O=C(OCCc1ccc(Cl)cc1)c1ccccc1C(=O)c1cccs1` [Example 37], the activity at 20 µM in the test on human glial U-343 cells amounted to 72.5%.

`O=C(OCCc1cccc(F)c1)c1ccccc1C(=O)c1cccs1` [Example 38]: in the test on human glial U-343 cells, the activity at 20 µM was determined as 33%.

With `CCCCCCOC(=O)c1ccccc1C(=O)c1cccs1` [Example 39], the activity at 20 µM in the test on human glial U-343 cells turned out to be 50.2%.

Consider `O=C(OCc1ccccc1Br)c1ccccc1C(=O)c1cccs1` [Example 40], for which the activity at 20 µM with human glial U-343 cells stood at 36%.

`O=C(OCc1ccccc1F)c1ccccc1C(=O)c1cccs1` [Example 41]: the activity at 20 µM in the test on human glial U-343 cells worked out at 46.4%.

Turning to `O=C(OCc1ccc(F)cc1)c1ccccc1C(=O)c1cccs1` [Example 42], the activity at 20 µM with human glial U-343 cells stood at 32.4%.

Consider `O=C(OCCc1ccc(F)cc1)c1ccccc1C(=O)c1cccs1` [Example 43], for which, in the test with human glial U-343 cells, the activity at 20 µM was 29.2%.

With `O=C(OCc1cccc(Cl)c1Cl)c1ccccc1C(=O)c1cccs1` [Example 44], the activity at 20 µM with human glial U-343 cells was determined as 26.5%.

In the case of `O=C(NC1CC1c1ccccc1)c1ccccc1C(=O)c1cccs1` (stereo not shown) [Example 45], the activity at 20 µM in the test with human glial U-343 cells is 22%.

Regarding `O=C(OCCc1cccc(O)c1)c1ccccc1C(=O)c1cccs1` [Example 46], in the test on human glial U-343 cells, the activity at 20 µM is 35.8%.
